Source: patent publication US10449183B2, “Methods for inhibiting preterm labor and uterine contractility disorders and preventing cervical ripening” (DIGNITY HEALTH, priority 2010, dated 2019)
“Also recorded” adds a separate entry of the source. Where two headings read alike, the source gives them in different places.

Legend:
cervix of pregnant rats = assay: Cervical ripening assessed in vivo by collagen light-induced fluorescence (LIF) with the collascope; design: species or system Sprague-Dawley rats
From the text: (§1) Nonpregnant and timed-pregnant Sprague-Dawley rats (200-250 g) from Charles-River Laboratories (Wilmington, Mass., USA) were delivered to animal care facilities on day 12 of gestation (day 1 being the day when a sperm plug was observed). The animals were housed separately, with free access to food and water and maintained on a constant 12-hour light-dark cycle. Control pregnant rats were spontaneously delivering on day 22 and 23 of gestation. For the measurements with the collascope the animals were anaesthetized (interperitoneal (i.p). injection) with a combination of xylazine (Gemini, Burns Veterinary Supply Inc, Rockville Center, N.Y., USA) and ketamine HCl (Ketaset; Fort Dodge Laboratories Inc, Fort Dodge, Iowa, USA). The animals were randomly allocated to one of the groups and sacrificed by carbon dioxide inhalation on day 3, 5, 7 and 10 postpartum or on day 25 of pregnancy in the groups with delayed delivery. All procedures were approved by the Animal Care and Use Committee of the St. Joseph's Hospital and Medical Center in Phoenix.
(§2) Prior to any treatment LIF measurements were made in control rats throughout pregnancy and postpartum to estimate the LIF profile during gestation (see FIG. 1). Pregnant rats (N=6/group) were treated (see FIG. 2), when not otherwise mentioned (see FIG. 3), from day 13 of pregnancy until delivery. Single daily treatments were performed at 8 a.m. and twice a day treatments at 8 a.m. and 8 p.m. All single injections (4 mg P4, 10 mg 17P, 2 mg promegestone (R5020)) were by the subcutaneous route (s.c.) in sesame oil (0.2 ml), which was also used for the controls. Vaginal gels were applied twice a day with a blunt ball-top needle deep into the vagina. Crinone was used for the P4 vaginal group (equivalent volumes of Crinone were used for 2-15 mg P4/treatment), all data presented show the results of the highest dose (total daily dose of 30 mg P4=⅓ of a applicator of 8% Crinone that contains 90 mg P4). For the vaginal promegestone (R5020) group micronized promegestone (R5020) (1 mg/treatment) was mixed into 0.18 ml of Replens. The control rats for the vaginal groups were treated with Replens (0.18 ml/treatment). For oral P4 treatments (15 mg, bid, vehicle sesame oil or H2O, volume 1 ml) gavage was used. For topical P4 treatment (15 mg, bid, P4 in 1 ml sesame oil, fish oil or in Replens) the drug was applied on the back of animals that were shaved on day 13, 17 and 21. In some animals (N=6) RU-486 (3 mg in 0.2 ml sesame oil) was injected subcutaneously once on day 16 of gestation.
The amount of cervical collagen was evaluated in vivo (only in group subcutaneously P4, vaginal P4, subcutaneously 17P, vaginal promegestone (R5020), subcutaneously RU-486) by measurement of the auto-fluorescent properties of cross-linked collagen with a new prototype of an instrument, termed collascope (Reproductive Research Technologies, Houston, Tex., USA), as used previously with an earlier prototype.
After insertion of a small speculum into the vagina of the anesthetized animal, the optical probe of the collascope was placed on the surface of the exocervix. […] The exposure time for excitation was 100 msec. The average of 20 measurements of the detected fluorescent intensity (photon count) at 390 nm was used for each animal at any given time. Measurements of cervical light-induced fluorescence (LIF) were performed on nonpregnant animals once and in pregnant animals every other day starting at day 13 of gestation until delivery and on postpartum day 3 and/or postpartum day 5 (see FIGS. 2 and 3), and for some animals also on postpartum days 7 and 10 (see FIGS. 1 and 3).
The cervical LIFs obtained at different times of gestation (FIG. 1) were compared using one-way analysis of variance (ANOVA) and multiple pairwise comparison procedures (Holm-Sidak). […]

pregnant rats = assay: Time of delivery of timed-pregnant rats (hours after 8 a.m. of day 22 of gestation); assay type: in vivo, Sprague-Dawley rats; conditions: for delay of delivery compared to vehicle control: from day 13
From the text: as §1, §2
Times of delivery (see also FIG. 4) of controls and various treatment groups were determined as hours after 8 a.m. of day 22 of gestation (FIG. 5). The expulsion of one pup was defined as delivery.
The cervical LIFs obtained at different times of gestation (FIG. 1) were compared using one-way analysis of variance (ANOVA) and multiple pairwise comparison procedures (Holm-Sidak). Student's t-test was used to compare the LIF results of a treatment group to its specific control group at any time in gestation and postpartum and also to determine the differences in delivery times (FIGS. 2, 3 and 5). A two-tailed probability value of P<0.05 was considered statistically significant.
FIG. 15 depicts delay of delivery times in timed pregnant rats treated with progesterone (P4) with different routes and vehicles. Treatment was started on day 13 of gestation and continued until delivery of pups or until delivery was blocked at […] (day 25) past day 22 of gestation. 8 am on day 22 is noted as hour 0 and delay is compared to control group treated only with vehicle. Treatment groups included: P4 in fish oil (vaginal, nasal, injection and topical groups), P4 in cocoa butter (rectal) and P4 in sesame oil (oral). All treatment groups received a total daily dose of 30 mg P4/day except the nasal and subcutaneous injection group which received 1 mg/day and 4 mg/day, respectively. […]

human myometrium = assay: Human myometrial contractility in vitro (organ chamber / muscle bath); assay type: cell-based
From the text: The inventors tested whether a soluble form of progesterone would inhibit human myometrial contractility in vitro (FIG. 7). FIG. 7 is a schematic drawing of the muscle bath that is used to measure uterine contractility in vitro. The system consists of a water jacketed chamber to maintain temperature at 37 degrees and an inner chamber where the tissue is suspended in Krebs'-Ringer solution and bubbled with air. The tissue is connected to a force transducer and the signals from the transducer are amplified, stored and analyzed by a data acquisition system. The inventors examined the direct effects of various tocolytics on uterine contractility with and without progesterone, as it was possible that a tocolytic used with progesterone would produce additive, synergistic or antagonistic action on contractility.

[1] = cited from earlier work

CC(=O)[C@H]1CC[C@H]2[C@@H]3CCC4=CC(=O)CC[C@]4(C)[C@H]3CC[C@]12C [P4, progesterone]
cervical LIF, day 25 (delayed delivery) in P4 injection group compared to control animals at day 21 (cervix of pregnant rats; P4 4 mg s.c. daily from day 13): no difference (P<0.05) | cervical LIF / cervical ripening compared with vehicle controls (cervix of pregnant rats; P4 4 mg s.c. daily in sesame oil from day 13 of pregnancy): cervix is rigid; also recorded: significantly (P<0.05) higher; also recorded: longest effect on delaying cervical ripening; also recorded: also prevents further ripening on day 21; also recorded: can only delay, but not completely inhibit cervical ripening; also recorded: delayed but not entirely blocked during the final days of gestation | cervical LIF / cervical ripening compared with vehicle controls (cervix of pregnant rats; vaginal P4 15 mg bid (Crinone) from day 13): no significant differences (P>0.05); also recorded: no effect on cervical ripening; also recorded: no significant differences are observed at any time | delay of delivery compared to controls (pregnant rats; P4 30 mg/day in DHA (docosahexanoic acid) from day 20): significant delays when compared to controls | delay of delivery compared to controls (pregnant rats; P4 30 mg/day in EPA (eicosapentanoic acid) from day 20): All treatment groups except EPA had significant delays | delay of delivery compared to controls (pregnant rats; P4 30 mg/day in GNC Triple Strength fish oil from day 20): significant delays when compared to controls | delay of delivery compared to controls (pregnant rats; P4 30 mg/day in Neptune Krill Oil from day 20): significant delays when compared to controls | delay of delivery compared to controls (pregnant rats; P4 30 mg/day in Nutrasea fish oil from day 20): significant delays when compared to controls | delay of delivery compared to controls (pregnant rats; P4 30 mg/day in Nutrasea+D fish oil from day 20): significant delays when compared to controls | delay of delivery compared to controls (pregnant rats; P4 30 mg/day in Omegasorb GNC fish oil from day 20): complete block of delivery | delay of delivery (pregnant rats; P4 in fish oil, s.c. or topical, all groups begun on days 19, 20, 21 or 22): significant delay of delivery | block of delivery (pregnant rats; P4 in fish oil, subcutaneous injection begun on day 21): complete block in all animals | block of delivery (pregnant rats; P4 in fish oil, topical application begun on day 19): complete block in all animals | delivery (pregnant rats; P4 in fish oil, treatment begun just prior to delivery on day 22): blocked or significantly delayed | effect on delivery (pregnant rats; oral P4 15 mg bid by gavage in sesame oil or H2O from day 13): Delivery was not changed; also recorded: no effect on time of delivery | delay of delivery compared to vehicle control (pregnant rats; rectal P4 in cocoa butter, 30 mg P4/day): significant delay of delivery | effect on delivery (pregnant rats; s.c. injection daily in sesame oil from day 13 (P4 4 mg, 17P 10 mg, R5020 2 mg)): inhibits delivery; also recorded: completely blocked delivery; also recorded: prevented delivery; also recorded: completely inhibited; also recorded: delivery is inhibited | delay of delivery compared to vehicle control (pregnant rats; subcutaneous injection of P4 in fish oil, 4 mg/day): significant delay of delivery | delay of delivery (pregnant rats; topical P4 15 mg bid in Omegasorb fish oil from day 19): significant delay of delivery | effect on delivery (pregnant rats; topical P4 15 mg bid in Replens from day 13): Delivery was not changed; also recorded: not at all | delay of delivery (pregnant rats; topical P4 15 mg bid in coconut oil from day 19): significant delay of delivery | delay of delivery (pregnant rats; topical P4 15 mg bid in corn oil from day 19): All groups but corn oil had significant delay of delivery | effect on delivery (pregnant rats; topical P4 15 mg bid in fish oil from day 13): inhibits delivery; also recorded: completely | delay of delivery (pregnant rats; topical P4 15 mg bid in olive oil from day 19): significant delay of delivery | effect on delivery (pregnant rats; topical P4 15 mg bid in sesame oil from day 13): inhibits delivery; also recorded: only partially | delay of delivery compared to vehicle control (pregnant rats; topical P4 in fish oil, 30 mg P4/day): significant delay of delivery | effect on delivery (pregnant rats; vaginal bid from day 13 (P4 15 mg as Crinone; R5020 1 mg in Replens)): Delivery was not changed; also recorded: failed to inhibit delivery; also recorded: no effect on cervical ripening and on delivery; also recorded: no significant effect on delaying term delivery | effect on human myometrial contractions (human myometrium; 10^−4M progesterone): inhibited myometrial contractions | contractile inhibition of the combination (human myometrium; P4 (10^-5 M) with indomethacin (IND), term, not in labor): increase contractile inhibition, by additive or synergistic actions | contractile inhibition of the combination (human myometrium; P4 (10^-5 M) with nifedipine (Nife), term, not in labor): increase contractile inhibition, by additive or synergistic actions | effect on pinacidil inhibition of contractility (human myometrium; P4 (10^−5M) with pinacidil (10^−6.5M), term, not in labor): decreases pinacidil inhibition of contractility | effect on myometrial contractility (human myometrium; P4 soluble and crystalline in ETOH): inhibits myometrial contractility | half life ([1]; background statement): roughly 32 hours | half life ([1]; statement under advantages): about 30 minutes
